Measured values taken from patent US12139520B2 (priority 2020, dated 2024).
Numbered stars: 1 amine (or outer) side, 2 acyl side, 3 side chain; on linkers, the order of the positions; unused ones are H or OH. Bridge positions count the residues as written; N and C are the ends. Square brackets hold non-standard residues; d marks the D form. Peptide text beside a SMILES is read from it. * marks the point of attachment. C20 diacid = O=C(O)CCCCCCCCCCCCCCCCCCC(=O)*; γGlu = O=C(O)[C@H](CCC(=O)[*:2])N[*:1]; Hyp = O=C(O)[C@@H]1C[C@@H](O)CN1; Cit = NC(=O)NCCC[C@H](N)C(=O)O

What was measured:
[1] = target: T1, hAMY3 receptor (Homo sapiens, UniProt O60896+P30988); assay: cAMP assay for in vitro receptor activation, hAMY3-R; assay type: cell-based; conditions: cAMP assay, hAMY3 receptor; read-out: hAMY3R EC50
T1 sequence (P30988 25-474): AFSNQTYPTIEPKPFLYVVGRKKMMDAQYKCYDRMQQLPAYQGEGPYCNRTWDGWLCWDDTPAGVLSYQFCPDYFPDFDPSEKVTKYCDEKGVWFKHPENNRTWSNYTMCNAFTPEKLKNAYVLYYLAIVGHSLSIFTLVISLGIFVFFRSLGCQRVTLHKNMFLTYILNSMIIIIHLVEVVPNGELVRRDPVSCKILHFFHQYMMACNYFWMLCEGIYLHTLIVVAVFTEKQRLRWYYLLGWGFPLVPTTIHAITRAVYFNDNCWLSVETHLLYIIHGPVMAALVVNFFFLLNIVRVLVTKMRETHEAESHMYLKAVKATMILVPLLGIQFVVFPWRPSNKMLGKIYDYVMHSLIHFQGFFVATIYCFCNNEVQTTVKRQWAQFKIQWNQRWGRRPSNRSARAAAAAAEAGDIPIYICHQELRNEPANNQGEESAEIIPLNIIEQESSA
T1 sequence (O60896 24-148 partner): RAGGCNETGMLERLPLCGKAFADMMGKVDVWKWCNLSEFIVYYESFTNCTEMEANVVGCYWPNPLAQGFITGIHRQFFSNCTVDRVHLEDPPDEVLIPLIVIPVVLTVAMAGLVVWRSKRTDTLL
In short: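 Read-out is TR-FRET cAMP signal, recorded one hour after reagent addition, following 30 min room-temperature stimulation of stable hAMY3 cells with graded compound doses in casein/IBMX (0.5 mM) buffer.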

[2] = target: hAM1 receptor (Homo sapiens, UniProt O60895+Q16602); assay: cAMP assay for in vitro receptor activation, hAM1-R; assay type: cell-based; conditions: cAMP assay, hAM1 receptor; read-out: hAM1R EC50
In short: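 Stable hAM1 cells (monoclonal) plated 8000/well; buffer DPBS, 0.05% casein, 0.5 mM IBMX; cAMP read-out.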

hAM1 receptor, sequence (Q16602 23-461): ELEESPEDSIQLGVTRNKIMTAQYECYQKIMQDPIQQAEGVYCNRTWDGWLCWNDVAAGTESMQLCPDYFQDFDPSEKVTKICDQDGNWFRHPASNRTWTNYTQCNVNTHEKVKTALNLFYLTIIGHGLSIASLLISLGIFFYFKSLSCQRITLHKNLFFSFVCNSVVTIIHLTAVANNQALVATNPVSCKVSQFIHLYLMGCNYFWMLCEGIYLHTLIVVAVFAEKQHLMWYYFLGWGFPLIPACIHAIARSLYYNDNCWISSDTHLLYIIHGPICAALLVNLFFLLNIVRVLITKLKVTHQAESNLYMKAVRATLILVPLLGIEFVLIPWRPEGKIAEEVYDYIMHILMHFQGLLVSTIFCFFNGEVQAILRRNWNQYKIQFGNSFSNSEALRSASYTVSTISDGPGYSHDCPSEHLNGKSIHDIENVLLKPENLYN
hAM1 receptor, sequence (O60895 43-175 partner): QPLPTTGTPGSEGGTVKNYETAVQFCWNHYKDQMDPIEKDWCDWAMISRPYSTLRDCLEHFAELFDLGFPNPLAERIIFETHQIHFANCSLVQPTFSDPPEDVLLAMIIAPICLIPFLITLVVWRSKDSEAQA

Compound | EC50 [1] [nM] | EC50 [2] [nM]
CC[C@H](C)[C@H](NC(=O)[C@H](CCC(N)=O)NC(=O)[C@H](CCC(=O)O)NC(=O)[C@H](C)NC(=O)[C@H](CC(C)C)NC(=O)[C@H](CCCNC(N)=O)NC(=O)[C@H](C)NC(=O)[C@@H](NC(=O)[C@@H](NC(=O)[C@@H]1CSSC[C@H](NC(=O)[C@@H](N)CCCNC(=N)N)C(=O)N[C@@H](CCC(N)=O)C(=O)N[C@@H](C)C(=O)N[C@@H](CO)C(=O)N[C@@H]([C@@H](C)O)C(=O)N1)[C@@H](C)O)C(C)C)C(=O)N[C@@H](C)C(=O)N[C@@H](CCC(N)=O)C(=O)N[C@@H](Cc1ccc(O)cc1)C(=O)N[C@H](C(=O)N[C@@H](CC(=O)O)C(=O)N[C@@H](CCCCN)C(=O)N[C@@H](CC(=O)O)C(=O)N[C@@H](CCCCN)C(=O)N[C@@H](CC(=O)O)C(=O)N[C@@H](CCC(N)=O)C(=O)N[C@H](C(=O)N[C@@H](C)C(=O)N1CCC[C@H]1C(=O)N1CCC[C@H]1C(=O)N[C@H](C(=O)N[C@@H](CCC(=O)O)C(=O)N[C@H](C(=O)NCC(=O)N1CCC[C@H]1C(=O)N[C@@H](CC(N)=O)C(=O)N[C@@H](CO)C(=O)N1C[C@H](O)C[C@H]1C(N)=O)C(C)C)[C@@H](C)O)C(C)C)[C@@H](C)O [compound 33] (H-RCQASTCTVA[Cit]LAEQIAQYTDKDKDQVAPPTEVGPNS[Hyp]-NH2; disulfide 2-7; N-terminus assumed) | 0.008 | > 5000
CC[C@H](C)[C@H](NC(=O)[C@H](CCC(N)=O)NC(=O)[C@H](Cc1c[nH]cn1)NC(=O)[C@H](C)NC(=O)[C@H](CC(C)C)NC(=O)[C@H](CCCNC(=N)N)NC(=O)[C@H](CCC(N)=O)NC(=O)[C@@H](NC(=O)[C@@H](NC(=O)[C@@H]1CSSC[C@H](NC(=O)[C@H](CCCCN)NC(=O)CC[C@H](NC(=O)CCCCCCCCCCCCCCCCCCC(=O)O)C(=O)O)C(=O)N[C@@H](CC(N)=O)C(=O)N[C@@H]([C@@H](C)O)C(=O)N[C@@H](C)C(=O)N[C@@H]([C@@H](C)O)C(=O)N1)[C@@H](C)O)C(C)C)C(=O)N[C@@H](CCC(N)=O)C(=O)N[C@@H](CCC(N)=O)C(=O)N[C@@H](Cc1ccccc1)C(=O)N[C@H](C(=O)N[C@@H](CC(=O)O)C(=O)N[C@@H](CCCCN)C(=O)N[C@@H](CC(=O)O)C(=O)N[C@@H](CCCCN)C(=O)N[C@@H](CC(=O)O)C(=O)N[C@@H](CC(N)=O)C(=O)N[C@H](C(=O)N[C@@H](C)C(=O)N1CCC[C@H]1C(=O)N1CCC[C@H]1C(=O)N[C@H](C(=O)N[C@@H](CC(N)=O)C(=O)N[C@H](C(=O)NCC(=O)N[C@@H](CO)C(=O)N[C@@H](CC(N)=O)C(=O)NCC(=O)N1C[C@H](O)C[C@H]1C(N)=O)C(C)C)[C@@H](C)O)C(C)C)[C@@H](C)O [compound 35] ({C20 diacid-γGlu}-KCNTATCTVQRLAHQIQQFTDKDKDNVAPPTNVGSNG[Hyp]-NH2; disulfide 2-7) | 0.009 | > 5000
CC[C@H](C)[C@H](NC(=O)[C@H](CCC(N)=O)NC(=O)[C@H](Cc1c[nH]cn1)NC(=O)[C@H](C)NC(=O)[C@H](CC(C)C)NC(=O)[C@H](CCCNC(=N)N)NC(=O)[C@H](CCC(N)=O)NC(=O)[C@@H](NC(=O)[C@@H](NC(=O)[C@@H]1CSSC[C@H](NC(=O)[C@H](CCCNC(=N)N)NC(=O)CC[C@H](NC(=O)CCCCCCCCCCCCCCCCCCC(=O)O)C(=O)O)C(=O)N[C@@H](CC(N)=O)C(=O)N[C@@H]([C@@H](C)O)C(=O)N[C@@H](C)C(=O)N[C@@H]([C@@H](C)O)C(=O)N1)[C@@H](C)O)C(C)C)C(=O)N[C@@H](Cc1ccc(O)cc1)C(=O)N[C@@H](CCC(N)=O)C(=O)N[C@@H](Cc1ccccc1)C(=O)N[C@H](C(=O)N[C@@H](CC(=O)O)C(=O)N[C@@H](CCCCN)C(=O)N[C@@H](CC(=O)O)C(=O)N[C@@H](CCCCN)C(=O)N[C@@H](CC(=O)O)C(=O)N[C@@H](CC(N)=O)C(=O)N[C@H](C(=O)N[C@@H](C)C(=O)N1CCC[C@H]1C(=O)N1CCC[C@H]1C(=O)N[C@H](C(=O)N[C@@H](CC(N)=O)C(=O)N[C@H](C(=O)NCC(=O)N[C@@H](CO)C(=O)N[C@@H](CC(N)=O)C(=O)NCC(=O)N1C[C@H](O)C[C@H]1C(N)=O)C(C)C)[C@@H](C)O)C(C)C)[C@@H](C)O [compound 39] ({C20 diacid-γGlu}-RCNTATCTVQRLAHQIYQFTDKDKDNVAPPTNVGSNG[Hyp]-NH2; disulfide 2-7) | 0.01 | > 5000

Continued, values first:

EC50 [1] [nM] | EC50 [2] [nM] | Compound
0.012 | > 5000 | CC[C@H](C)[C@H](NC(=O)[C@H](CCC(N)=O)NC(=O)[C@H](Cc1c[nH]cn1)NC(=O)[C@H](C)NC(=O)[C@H](CC(C)C)NC(=O)[C@H](CCCNC(=N)N)NC(=O)[C@H](CCC(N)=O)NC(=O)[C@@H](NC(=O)[C@@H](NC(=O)[C@@H]1CSSC[C@H](NC(=O)[C@H](CCCCN)NC(=O)CC[C@H](NC(=O)CCCCCCCCCCCCCCCCCCC(=O)O)C(=O)O)C(=O)N[C@@H](CC(N)=O)C(=O)N[C@@H]([C@@H](C)O)C(=O)N[C@@H](CO)C(=O)N[C@@H]([C@@H](C)O)C(=O)N1)[C@@H](C)O)C(C)C)C(=O)N[C@@H](C)C(=O)N[C@@H](CCC(N)=O)C(=O)N[C@@H](Cc1ccccc1)C(=O)N[C@H](C(=O)N[C@@H](CC(=O)O)C(=O)N[C@@H](CCCCN)C(=O)N[C@@H](CC(=O)O)C(=O)N[C@@H](CCCCN)C(=O)N[C@@H](CC(=O)O)C(=O)N[C@@H](CC(N)=O)C(=O)N[C@H](C(=O)N[C@@H](C)C(=O)N1CCC[C@H]1C(=O)N1CCC[C@H]1C(=O)N[C@H](C(=O)N[C@@H](CC(N)=O)C(=O)N[C@H](C(=O)NCC(=O)N[C@@H](CO)C(=O)N[C@@H](CC(N)=O)C(=O)NCC(=O)N1C[C@H](O)C[C@H]1C(N)=O)C(C)C)[C@@H](C)O)C(C)C)[C@@H](C)O [compound 62] ({C20 diacid-γGlu}-KCNTSTCTVQRLAHQIAQFTDKDKDNVAPPTNVGSNG[Hyp]-NH2; disulfide 2-7)
0.015 | > 5000 | CC[C@H](C)[C@H](NC(=O)[C@H](CCC(N)=O)NC(=O)[C@H](Cc1c[nH]cn1)NC(=O)[C@H](C)NC(=O)[C@H](CC(C)C)NC(=O)[C@H](CCCNC(=N)N)NC(=O)[C@H](CCC(N)=O)NC(=O)[C@@H](NC(=O)[C@@H](NC(=O)[C@@H]1CSSC[C@H](NC(=O)[C@H](CCCCN)NC(=O)CC[C@H](NC(=O)CCCCCCCCCCCCCCCCCCC(=O)O)C(=O)O)C(=O)N[C@@H](CC(N)=O)C(=O)N[C@@H]([C@@H](C)O)C(=O)N[C@@H](C)C(=O)N[C@@H]([C@@H](C)O)C(=O)N1)[C@@H](C)O)C(C)C)C(=O)N[C@@H](C)C(=O)N[C@@H](CCC(N)=O)C(=O)N[C@@H](Cc1ccccc1)C(=O)N[C@H](C(=O)N[C@@H](CC(=O)O)C(=O)N[C@@H](CCCCN)C(=O)N[C@@H](CC(N)=O)C(=O)N[C@@H](CCCCN)C(=O)N[C@@H](CC(=O)O)C(=O)N[C@@H](CC(N)=O)C(=O)N[C@H](C(=O)N[C@@H](C)C(=O)N1CCC[C@H]1C(=O)N1CCC[C@H]1C(=O)N[C@H](C(=O)N[C@@H](CC(N)=O)C(=O)N[C@H](C(=O)NCC(=O)N[C@@H](CO)C(=O)N[C@@H](CC(N)=O)C(=O)NCC(=O)N1C[C@H](O)C[C@H]1C(N)=O)C(C)C)[C@@H](C)O)C(C)C)[C@@H](C)O [compound 87] ({C20 diacid-γGlu}-KCNTATCTVQRLAHQIAQFTDKNKDNVAPPTNVGSNG[Hyp]-NH2; disulfide 2-7)
0.018 | > 5000 | CC[C@H](C)[C@H](NC(=O)[C@H](CCC(N)=O)NC(=O)[C@H](CCC(=O)O)NC(=O)[C@H](C)NC(=O)[C@H](CC(C)C)NC(=O)[C@H](CCCNC(=N)N)NC(=O)[C@H](CCC(N)=O)NC(=O)[C@@H](NC(=O)[C@@H](NC(=O)[C@@H]1CSSC[C@H](NC(=O)[C@H](CCCCN)NC(=O)CC[C@H](NC(=O)CCCCCCCCCCCCCCCCCCC(=O)O)C(=O)O)C(=O)N[C@@H](CC(N)=O)C(=O)N[C@@H]([C@@H](C)O)C(=O)N[C@@H](C)C(=O)N[C@@H]([C@@H](C)O)C(=O)N1)[C@@H](C)O)C(C)C)C(=O)N[C@@H](Cc1ccc(O)cc1)C(=O)N[C@@H](CCC(N)=O)C(=O)N[C@@H](Cc1ccccc1)C(=O)N[C@H](C(=O)N[C@@H](C)C(=O)N[C@@H](CCCCN)C(=O)N[C@@H](CC(=O)O)C(=O)N[C@@H](CCCCN)C(=O)N[C@@H](CC(=O)O)C(=O)N[C@@H](CC(N)=O)C(=O)N[C@H](C(=O)N[C@@H](C)C(=O)N1CCC[C@H]1C(=O)N1CCC[C@H]1C(=O)N[C@H](C(=O)N[C@@H](CC(N)=O)C(=O)N[C@H](C(=O)NCC(=O)N[C@@H](CO)C(=O)N[C@@H](CC(N)=O)C(=O)NCC(=O)N1C[C@H](O)C[C@H]1C(N)=O)C(C)C)[C@@H](C)O)C(C)C)[C@@H](C)O [compound 106] ({C20 diacid-γGlu}-KCNTATCTVQRLAEQIYQFTAKDKDNVAPPTNVGSNG[Hyp]-NH2; disulfide 2-7)
